Assay results reported in PubChem BioAssay AID248 (DTP/NCI, 2004).
Values joined by “and” are separate entries in the source; they are usually repeats but may differ in a detail not shown here. Equal values may be shown once. Inconclusive results and toxic doses are left out. No stated cut-off is given here; in the data, active means T/C of 150% or more; inactive means T/C below 125%.

System: L1210 leukemia ip in BDF1 mice, survival T/C
Test: NCI In Vivo Anticancer Drug Screen. Data for tumor model L1210 Leukemia (intraperitoneal) in B6D2F1 (BDF1) mice
Conditions: endpoint: mean survival time, higher = longer survival
How it was run: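 Read-out is survival time, reported as the treated-group measurement over the vehicle-control measurement.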

[1] = dose: 100.0 mg/kg/injection, schedule: Q04DX003 (ip), vehicle: Klucel (hydroxypropylcellulose) (HPC)
[2] = dose: 100.0 mg/kg/injection, schedule: Q01DX001 (ip), vehicle: carboxymethylcellulose (CMC)
[3] = dose: 200.0 mg/kg/injection, schedule: Q01DX001 (ip), vehicle: carboxymethylcellulose (CMC)
[4] = dose: 400.0 mg/kg/injection, schedule: Q01DX001 (ip), vehicle: carboxymethylcellulose (CMC)
[5] = dose: 50.0 mg/kg/injection, schedule: Q01DX009 (ip), vehicle: saline with Tween-80
[6] = dose: 100.0 mg/kg/injection, schedule: Q01DX009 (ip), vehicle: saline with Tween-80
[7] = dose: 100.0 mg/kg/injection, schedule: Q04DX003 (ip), vehicle: saline
[8] = dose: 200.0 mg/kg/injection, schedule: Q04DX003 (ip), vehicle: saline
[9] = dose: 400.0 mg/kg/injection, schedule: Q04DX003 (ip), vehicle: saline
[10] = dose: 10.0 mg/kg/injection, schedule: Q01DX Z (ip), vehicle: saline

Measured: T/C

O=C(COc1ccc(Cl)cc1)Nc1cccnc1
inactive: dose: 25.0 mg/kg/injection, schedule: Q01DX009 (ip), vehicle: Klucel (hydroxypropylcellulose) (HPC) 100 % of control | dose: 25.0 mg/kg/injection, schedule: Q04DX003 (ip), vehicle: Klucel (hydroxypropylcellulose) (HPC) 100 % of control | dose: 50.0 mg/kg/injection, schedule: Q01DX009 (ip), vehicle: Klucel (hydroxypropylcellulose) (HPC) 92 % of control | dose: 50.0 mg/kg/injection, schedule: Q04DX003 (ip), vehicle: Klucel (hydroxypropylcellulose) (HPC) 94 % of control | [1] 103 % of control

CCN(c1ccc(Br)cc1)c1ccc(Br)cc1
inactive: [2] 100 % of control | [3] 94 % of control | [4] 105 % of control

C=CCCCCCCCCC(=O)N(CCOC)CCOC
inactive: dose: 25.0 mg/kg/injection, schedule: Q01DX009 (ip), vehicle: saline with Tween-80 96 % of control | [5] 100 % of control | [6] 100 % of control and 91 % of control

O=C(Nc1ccccc1F)c1ccc(Cl)c(Cl)c1
inactive: [1] 98 % of control | dose: 200.0 mg/kg/injection, schedule: Q01DX009 (ip), vehicle: Klucel (hydroxypropylcellulose) (HPC) 92 % of control | dose: 200.0 mg/kg/injection, schedule: Q04DX003 (ip), vehicle: Klucel (hydroxypropylcellulose) (HPC) 96 % of control | dose: 400.0 mg/kg/injection, schedule: Q01DX009 (ip), vehicle: Klucel (hydroxypropylcellulose) (HPC) 86 % of control | dose: 400.0 mg/kg/injection, schedule: Q04DX003 (ip), vehicle: Klucel (hydroxypropylcellulose) (HPC) 93 % of control

CCCCCCOC(=O)C1(C)OC1c1ccccc1 (centres undefined)
inactive: dose: 100.0 mg/kg/injection, schedule: Q04DX002 (ip), vehicle: saline 112 % of control | dose: 200.0 mg/kg/injection, schedule: Q04DX002 (ip), vehicle: saline 104 % of control | dose: 400.0 mg/kg/injection, schedule: Q04DX002 (ip), vehicle: saline 93 % of control

Cc1ccc(S(=O)(=O)OCC2OCC(OC(=O)c3ccccc3)C(OC(=O)c3ccccc3)C2OC(=O)c2ccccc2)cc1 (centres undefined)
inactive: dose: 100.0 mg/kg/injection, schedule: Q04DX003 (ip), vehicle: saline with Tween-80 93 % of control | dose: 200.0 mg/kg/injection, schedule: Q04DX003 (ip), vehicle: saline with Tween-80 93 % of control | dose: 400.0 mg/kg/injection, schedule: Q04DX003 (ip), vehicle: saline with Tween-80 90 % of control

C#CC[N+]12CN3CN(CN(C3)C1)C2
inactive: [7] 101 % of control | [8] 98 % of control | [9] 102 % of control

CCN(CC)CCC(=O)c1ccccc1
inactive: dose: 12.5 mg/kg/injection, schedule: Q01DX009 (ip), vehicle: saline 100 % of control | dose: 25.0 mg/kg/injection, schedule: Q01DX009 (ip), vehicle: saline 97 % of control | [5] 96 % of control | dose: 50.0 mg/kg/injection, schedule: Q01DX009 (ip), vehicle: saline 97 % of control | [6] 91 % of control

CC(C)(C)NC(=O)Oc1ccc(Br)cc1Br
inactive: dose: 100.0 mg/kg/injection, schedule: Q01DX009 (ip), vehicle: saline 104 % of control | [7] 88 % of control | dose: 200.0 mg/kg/injection, schedule: Q01DX009 (ip), vehicle: saline 98 % of control | [8] 92 % of control | dose: 400.0 mg/kg/injection, schedule: Q01DX009 (ip), vehicle: saline 104 % of control | [9] 87 % of control

O=S1(=O)C=CC(Br)C1 (centres undefined)
inactive: dose: 100.0 mg/kg/injection, schedule: Q01DX001 (ip), vehicle: saline with Tween-80 100 % of control | dose: 200.0 mg/kg/injection, schedule: Q01DX001 (ip), vehicle: saline with Tween-80 101 % of control

O=C(CCCCC(=O)Nc1cc(C(=O)Nc2ccc(C3=NCCN3)cc2)ccc1C(=O)Nc1ccc(C2=NCCN2)cc1)Nc1cc(C(=O)Nc2ccc(C3=NCCN3)cc2)ccc1C(=O)Nc1ccc(C2=NCCN2)cc1
inactive: dose: 1.25 mg/kg/injection, schedule: Q01DX Z (ip), vehicle: saline 90 % of control | dose: 2.5 mg/kg/injection, schedule: Q01DX Z (ip), vehicle: saline 95 % of control | dose: 5.0 mg/kg/injection, schedule: Q01DX Z (ip), vehicle: saline 88 % of control | [10] 101 % of control | dose: 15.0 mg/kg/injection, schedule: Q01DX Z (ip), vehicle: methylcellulose (MC) 103 % of control | dose: 30.0 mg/kg/injection, schedule: Q01DX Z (ip), vehicle: methylcellulose (MC) 110 % of control

COc1cccc(C2CCCCC2OS(C)(=O)=O)c1 (centres undefined)
inactive: [2] 97 % of control | [3] 92 % of control | [4] 95 % of control

NCC(=O)NCCCCCCCCCCNC(=O)CN
inactive: [10] 98 % of control | dose: 30.0 mg/kg/injection, schedule: Q01DX Z (ip), vehicle: saline 95 % of control | dose: 100.0 mg/kg/injection, schedule: Q01DX Z (ip), vehicle: saline 98 % of control

C[N+]12C(=O)CC3OCC=C4C[N+]5(C)CCC6(c7ccccc71)C2C3C4CC65O (centres undefined)
inactive: dose: 9.5 mg/kg/injection, schedule: Q01DX001 (ip), vehicle: other 92 % of control | dose: 19.0 mg/kg/injection, schedule: Q01DX001 (ip), vehicle: other 101 % of control

ClCCN(CCCl)c1ccc(-c2csc(Cc3ccccc3)n2)cc1
inactive: [2] 93 % of control | [3] 92 % of control | [4] 93 % of control

O=[N+]([O-])c1cc(Cl)c(Cl)cc1NCCCO
inactive: dose: 100.0 mg/kg/injection, schedule: Q01DX001 (ip), vehicle: saline 95 % of control | dose: 100.0 mg/kg/injection, schedule: Q01DX009 (ip), vehicle: acetone 95 % of control | [7] 91 % of control | dose: 200.0 mg/kg/injection, schedule: Q01DX001 (ip), vehicle: saline 96 % of control | dose: 200.0 mg/kg/injection, schedule: Q01DX009 (ip), vehicle: acetone 97 % of control | [8] 96 % of control | dose: 400.0 mg/kg/injection, schedule: Q01DX001 (ip), vehicle: saline 92 % of control | [9] 89 % of control

Cc1cn(C2CC(OS(C)(=O)=O)C(CO)O2)c(=O)[nH]c1=O (centres undefined)
inactive: dose: 100.0 mg/kg/injection, schedule: Q01DX005 (ip), vehicle: saline 102 % of control | dose: 200.0 mg/kg/injection, schedule: Q01DX005 (ip), vehicle: saline 104 % of control

O=C(NC(CSCc1ccccc1)C(=O)Oc1ccc([N+](=O)[O-])cc1)OCc1ccccc1 (centres undefined)
inactive: dose: 12.0 mg/kg/injection, schedule: Q01DX009 (ip), vehicle: gum acacia 91 % of control | dose: 25.0 mg/kg/injection, schedule: Q01DX009 (ip), vehicle: gum acacia 111 % of control | dose: 25.0 mg/kg/injection, schedule: Q04DX003 (ip), vehicle: gum acacia 91 % of control | dose: 50.0 mg/kg/injection, schedule: Q01DX009 (ip), vehicle: gum acacia 87 % of control | dose: 50.0 mg/kg/injection, schedule: Q04DX003 (ip), vehicle: gum acacia 88 % of control | dose: 100.0 mg/kg/injection, schedule: Q04DX003 (ip), vehicle: gum acacia 92 % of control

CC(=O)NNC(=O)C1CCCCN1 (centres undefined)
inactive: dose: 100.0 mg/kg/injection, schedule: Q01DX001 (ip), vehicle: water 101 % of control | dose: 200.0 mg/kg/injection, schedule: Q01DX001 (ip), vehicle: water 100 % of control | dose: 400.0 mg/kg/injection, schedule: Q01DX001 (ip), vehicle: water 103 % of control
